In patent publication US11385234B2, “Methods and systems for detecting an analyte or classifying a sample” (Commonwealth Scientific and Industrial Research Organisation, priority 2012, dated 2022):

Columns and labels:
GFP^2—MBP—RLuc2 = GFP^2—MBP—RLuc2 (Escherichia coli, UniProt P0AEX9); assay: BRET^2 tagged MBP sugar assay, plate reader; assay type: binding; settings: 0.1 mM sugar, 30 minutes at 28° C., 1 μM protein
Method: 1 μM purified protein was used for all the energy transfer assays (final volume of 100 μL). […] Purified protein was incubated with the sugar dissolved in double deionised water or water for 30 minutes at 28° C.
BRET ratios were calculated as the ratio of maximum acceptor emission intensity to maximum donor emission intensity.
All data analysis was carried out using GraphPad Prism (version 5 for Windows, Graphpad Software, San Diego, Calif., USA). All data will be reported as means± standard deviation (SD) unless otherwise stated in the text. Two-tailed unpaired t-tests will be performed using Graphpad prism. Statistical significance is defined as p<0.05.

[1] = test system: SGSR-113 (BRET^2 tagged str-113); assay: BRET^2 response of SGSR-113 to volatile ligands, plate based; assay type: biochemical, C. elegans; settings: 1 μM of odorant
Excerpt: (§1) SGSRs are chimaeras of C. elegans str-112, str-113, str-114, str-115, str-116 and str-114/113 with the BRET^2 tags GFP^2 and RLuc or RLuc2 inserted in the third intracellular loop and at the C-terminus, respectively. The positions of the third intracellular loops of STR proteins were predicted using “TMAP” an algorithm from “The Biology Workbench” (a web-based tool for prediction of transmembrane segments http.//seqtool.sdsc.edu). These were named SGSR-112, SGSR-113, SGSR-114/113, SGSR-114, SGSR-115 and SGSR-116.
(§2) Except for SGSR-112, which was commercially synthesised, SGSR expression cassettes were designed and made by introducing multiple restriction sites into the relevant gene-specific PCR primers. PCR products containing those sites were cloned into TOPO PCR vectors (Invitrogen) and then digested with the corresponding restriction enzymes (REs) and ligated into the expression cassettes.
(§3) The inventors selected a number of specific volatiles (including 1-hexanol, 1 butanol, butane-2,3-dione, 3-hydroxybutanone, 2-pentanone and 2 nonanone) for further testing based on GC-MS analysis of the headspace of OP50 bacteria grown on LB. […] This is the first time that a volatile ligand (or indeed any ligand) has been identified for a BRET-based GPCR sensor, in the absence of prior knowledge of the ligand based on research with the unmodified parental GPCR.

[2] = test system: SGSR-114/113 (BRET^2 tagged str-114/113 chimera); assay: BRET^2 response of SGSR-114/113 to volatile ligands, plate based; assay type: biochemical, C. elegans; settings: for detectable level: in vitro
Excerpt: as §1, §2
The SGSR 114/113 chimera was constructed by modifying C. elegans SGSR-113 (by replacing the first fragment of str-13, 113-1 using the restriction sites NcoI and BspEI in the cassette with the corresponding fragment of str-114, str-114-1). Str114-1 contains the first 720 str-114 nucleotides of, corresponding to its first 240 amino acids and was amplified by high fidelity PCR using primers incorporating the restriction sites, NcoI at the 5′ end and BspEI at the 3′ end.
as §3

[3] = target: SGSR-112 (BRET^2 tagged str-112) (Caenorhabditis elegans, UniProt O16913); assay: BRET^2 response of SGSR-112 to volatile ligands, plate based; assay type: biochemical, C. elegans
Excerpt: as §1, §2, §3

[4] = test system: OGOR2 (ODR-10 receptor fused to RLuc2 and GFP^2); assay: Diacetyl assay with OGOR2, 96-well plate BRET^2; assay type: biochemical, C. elegans
Excerpt: (§4) Chimaeric BRET^2 tagged odorant receptors have the BRET^2 components inserted into the third intracellular loop (IC3) and at the C-terminus of the C. elegans odorant receptor with green fluorescent protein, GFP^2 at IC3 and Renilla luciferase, RLuc at the C-terminus of the protein (OGOR). Using site-directed mutagenesis the RLuc2 mutations were introduced into the pYES-DEST-52 OGOR sequence. Primers 1 and 2 (Table 3) were used to introduce the mutation C124A and primer pair 3 and 4 was used to introduce the M185 V mutation to make the construct named OGOR2 (FIG. 18, SEQ ID NO:1, SEQ ID NO-2).
Yeast colonies were inoculated in 10 mL SCMM-U (S. cerevisiae minimal media, composition per 200 mL: 1.34 g […] without amino acids and 0.38 g yeast supplementation media without uracil) supplemented with 2% glucose and incubated overnight at 28° C. An aliquot of the overnight culture was used to inoculate SCMM-U supplemented with 2% raffinose and 2% galactose to a final O.D..600 of 0.4 and incubated for an additional 72 h at 15° C. with shaking at 200 rpm.
Cell cultures were centrifuged at 1500×g for 5 minutes at 4° C. Cells were resuspended in 1 mL of sterile water and centrifuged for 1 minute at 10,000×g. Cells were resuspended in 4 mL phosphate buffer solution (PBS). The cells were lysed by French press (˜18000 psi) and cellular debris was removed by centrifugation at 15000×g (4° C.) for 15 minutes. Following this the supernatant fraction was centrifuged at 40,000 rpm (Beckman Coulter L-80 ultra-centrifuge) for 1 hour at 4° C. The supernatant was decanted and the membrane pellet was resuspended in 1 mL of PBS and stored at 4° C. for 48 hrs.
All ligand solutions were prepared directly in water. The OGOR concentration was normalized using GFP^2 intensity at 510 nm. Assays were carried out in 96-well plates (Perkin-Elmer) in a total volume of 100 μL in phosphate buffered saline. OGOR was incubated with each ligand for 45 minutes at 28° C. in wells sealed with Topseal-A™ (Packard). […]
BRET^2 signals were calculated as the ratio of emission intensity at 515 nm to that at 410 nm. […]

OGOR = assay: Diacetyl assay with original OGOR sensor (native RLuc), microwell; assay type: biochemical, C. elegans; settings: original OGOR sensor incorporating native RLuc
Excerpt: as §4
All ligand solutions were prepared directly in water. The OGOR concentration was normalized using GFP^2 intensity at 510 nm. Assays were carried out in 96-well plates (Perkin-Elmer) in a total volume of 100 μL in phosphate buffered saline. OGOR was incubated with each ligand for 45 minutes at 28° C. in wells sealed with Topseal-A™ (Packard).
Following the incubation, Coelenterazine 400a substrate (Biosynth) was added to a final concentration of 5 μM.
BRET^2 signals were calculated as the ratio of emission intensity at 515 nm to that at 410 nm. All data are reported as the mean±standard deviation (SD) or mean±standard error of the mean (SEM) as described in the text. […]

OGOR2 [5] = assay: Diacetyl detection with highly diluted OGOR2, wide bore chamber and liquid light guide; assay type: biochemical, C. elegans; settings: 1 μM diacetyl
Method: On-chip measurements were carried out with a microfluidic chip similar to that shown in FIG. 31A with two inlets, a passive mixing element and a detection chamber. An aluminium mirror was placed on top of the reaction chamber to enhance the BRET signal.
A number of variations were compared with the original set up (FIG. 31A). The diameter of the reaction chamber was increased to 4 mm (FIG. 34A) from an original diameter of 2 mm. The height of the reaction chamber was varied between 1 and 2 mm. A single optical fiber of diameter 0.4-1.0 mm (FIG. 31A) was replaced with a liquid light guide or fibre-optic bundle of 5 mm core diameter NA=0.59, feeding into a dichroic block (FIG. 34A), or a bifurcated light guide of trunk core diameter 6 mm branch core diameter of 4 mm (FIG. 37) or a multifurcated light guide of trunk core diameter 8 mm and branch core diameter 4 mm (FIGS. 38 and 40).
OGOR2 sensor solution was prepared at day 4 in PBS at high (100 and 50 times) dilution ratios from stock solution. Clz400a was prepared in PBS at 31.25 μM. When diacetyl was included, it was added to the OGOR2 sensor solution at a final concentration of 1 μM. For the control experiment, only DI water was added. The sensor tubes without and with diacetyl were both incubated at 28° C. in 30 min.

OGOR2 [6] = assay: Endpoint on-chip microfluidic diacetyl assay with OGOR2; assay type: biochemical, C. elegans
Method: Endpoint microfluidic assays were carried out on-chip in two inlet microfluidic mixer devices integrated with an optical detection chamber. […] OGOR and OGOR2 membrane pellets were resuspended in 1 mL of PBS, diluted as required and incubated at 28° C. for 45 minutes with diacetyl solution at concentrations ranging from 1 aM-1 μM. The preparation was introduced in the second inlet. On-chip mixing was initiated with an input flow rate of 400 μl/hr for each inlet.
(§5) BRET^2 signals were calculated as the ratio of emission intensity at 515 nm to that at 410 nm. All data are reported as the mean±standard deviation (SD) or mean±standard error of the mean (SEM) as described in the text. Curves were fitted with log [agonist] vs response curves with variable slopes following normalization of data, using Graphpad Prism version 5.03 for Windows. Two-tailed unpaired t-tests were carried out in Graphpad prism. Statistical significance was defined as p<0.05.

OGOR2 [7] = assay: Real-time on-chip microfluidic diacetyl assay with OGOR2; assay type: biochemical, C. elegans; settings: 1 fM diacetyl, 290 nM protein, 12.5 μM substrate, flow rates 50, 100, 200 and 300 μl/hr
Method: On-chip real-time measurements were carried out in a three-inlet microfluidic mixer device integrated with an optical detection chamber. […] The second inlet contained diacetyl (2,3-butanedione) diluted to give a final concentration of 1 fM in PBS, or PBS only as a control. The third inlet was used to introduce sensor protein suspension, which was prepared by resuspending the membrane pellet describe above in 1 mL of PBS and further diluting as required. The on-chip mixing was initiated by using input flow rates ranging from 50-400 μl/hr.
as §5

SGSR-112 (BRET^2 tagged str-112), sequence (O16913 entry or part of it): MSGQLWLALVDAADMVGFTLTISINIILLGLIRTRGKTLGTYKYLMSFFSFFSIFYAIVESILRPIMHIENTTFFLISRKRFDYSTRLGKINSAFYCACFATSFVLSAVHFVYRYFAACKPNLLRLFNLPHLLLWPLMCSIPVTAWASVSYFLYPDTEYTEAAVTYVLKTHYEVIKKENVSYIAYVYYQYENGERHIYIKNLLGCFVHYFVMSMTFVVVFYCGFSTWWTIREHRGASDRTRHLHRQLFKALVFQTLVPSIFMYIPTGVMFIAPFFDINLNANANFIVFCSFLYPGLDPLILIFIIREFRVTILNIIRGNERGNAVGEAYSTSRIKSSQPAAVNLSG

maltotriose
amplitude of the change in BRET ratio (GFP^2—MBP—RLuc2): 17.03%

CCCC(C)=O [2-pentanone]
BRET^2 response to volatile ligand [1]: tested positive | BRET^2 response to volatile ligand ([2]; 1 μM of odorant): tested positive | detectable level [2]: parts per billion levels (nM) levels | EC50 [3]: 0.15 nM | BRET^2 response to volatile ligand ([3]; 1 μM of odorant): tested positive

O=C(CO)[C@@H](O)[C@H](O)[C@H](O)CO [fructose]
response of BRET biosensor to sugar (GFP^2—MBP—RLuc2): did not respond

CC(=O)C(C)=O [diacetyl, 2,3-butanedione]
decrease in BRET^2 signal ([4]; 1 μM diacetyl, microplate wells): 21.4% | EC50 ([4]; microwell plate): 11.4 aM | linear range of dose-dependent response ([4]; microwell plate, six log units): 10^−18 to 10^−12 M | percentage change in BRET^2 signal in response to diacetyl (OGOR): 32% | detectable level [2]: parts per quadrillion (sub pM) levels | Diacetyl-dependent reduction in BRET^2 ratio (OGOR2 [5]; 50 times sensor dilution): 14.7% | Diacetyl-dependent reduction in BRET^2 ratio (OGOR2 [5]; 100 times sensor dilution): 13.7% | decrease in BRET^2 signal (OGOR2 [6]; 10 fM diacetyl, microfluidic endpoint): 36.9% | EC50 (OGOR2 [6]; on-chip microfluidic endpoint): ~10 aM | decrease in BRET^2 ratio (OGOR2 [7]): 27.4%
